Values joined by “and” are separate entries in the source; they are usually repeats but may differ in a detail not shown here. Equal values may be shown once. Inconclusive results and toxic doses are left out.

Data on 19 compounds can be found in PubChem BioAssay AID248 (DTP/NCI, 2004).

The subject of the experiment is L1210 leukemia ip in BDF1 mice, survival T/C. As to the kind of experiment: NCI In Vivo Anticancer Drug Screen. Data for tumor model L1210 Leukemia (intraperitoneal) in B6D2F1 (BDF1) mice. The conditions noted are these: endpoint: mean survival time, higher = longer survival. The procedure, abridged: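 Tumor was transplanted into mice, which were then dosed with test compound or vehicle alone. Survival was recorded for each group, and the treated figure was expressed relative to the control figure.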

[1] abbreviates: dose: 100.0 mg/kg/injection, schedule: Q04DX003 (ip), vehicle: saline with Tween-80.
Setting [2] is: dose: 200.0 mg/kg/injection, schedule: Q04DX003 (ip), vehicle: saline with Tween-80.
Where [3] appears, read: dose: 100.0 mg/kg/injection, schedule: Q04DX002 (ip), vehicle: Klucel (hydroxypropylcellulose) (HPC).
Setting [4] is: dose: 200.0 mg/kg/injection, schedule: Q04DX002 (ip), vehicle: Klucel (hydroxypropylcellulose) (HPC).
Where [5] appears, read: dose: 100.0 mg/kg/injection, schedule: Q01DX009 (ip), vehicle: Klucel (hydroxypropylcellulose) (HPC).
Setting [6] is: dose: 200.0 mg/kg/injection, schedule: Q01DX009 (ip), vehicle: Klucel (hydroxypropylcellulose) (HPC).
Where [7] appears, read: dose: 400.0 mg/kg/injection, schedule: Q01DX009 (ip), vehicle: Klucel (hydroxypropylcellulose) (HPC).
Setting [8] is: dose: 100.0 mg/kg/injection, schedule: Q01DX009 (ip), vehicle: saline.
The mark [9] stands for this setting: dose: 100.0 mg/kg/injection, schedule: Q04DX003 (ip), vehicle: Klucel (hydroxypropylcellulose) (HPC).
[10] abbreviates: dose: 100.0 mg/kg/injection, schedule: Q04DX003 (ip), vehicle: saline.
Setting [11] is: dose: 200.0 mg/kg/injection, schedule: Q04DX003 (ip), vehicle: saline.
[12] abbreviates: dose: 400.0 mg/kg/injection, schedule: Q01DX009 (ip), vehicle: saline.
The mark [13] stands for this setting: dose: 400.0 mg/kg/injection, schedule: Q04DX003 (ip), vehicle: Klucel (hydroxypropylcellulose) (HPC).
Setting [14] is: dose: 400.0 mg/kg/injection, schedule: Q04DX003 (ip), vehicle: saline.
Setting [15] is: dose: 200.0 mg/kg/injection, schedule: Q04DX003 (ip), vehicle: Klucel (hydroxypropylcellulose) (HPC).
[16] abbreviates: dose: 200.0 mg/kg/injection, schedule: Q01DX009 (ip), vehicle: saline.
Where [17] appears, read: dose: 100.0 mg/kg/injection, schedule: Q01DX001 (ip), vehicle: saline.
The mark [18] stands for this setting: dose: 200.0 mg/kg/injection, schedule: Q01DX001 (ip), vehicle: saline.

Regarding `CN=C(NC(C)C)c1ccc(NC(=O)c2ccc(C(=O)Nc3ccc(C(=NC)NC(C)C)cc3)cc2)cc1`, the T/C by setting is: (dose: 2.0 mg/kg/injection, schedule: Q01DX Z (ip), vehicle: carboxymethylcellulose (CMC)) 97 % of control; (dose: 4.0 mg/kg/injection, schedule: Q01DX Z (ip), vehicle: carboxymethylcellulose (CMC)) 101 % of control; (dose: 6.0 mg/kg/injection, schedule: Q01DX Z (ip), vehicle: carboxymethylcellulose (CMC)) 112 % of control; (dose: 16.0 mg/kg/injection, schedule: Q01DX Z (ip), vehicle: carboxymethylcellulose (CMC)) 151 % of control; (dose: 25.0 mg/kg/injection, schedule: Q01DX Z (oral), vehicle: carboxymethylcellulose (CMC)) 96 % of control; (dose: 31.0 mg/kg/injection, schedule: Q01DX Z (ip), vehicle: methylcellulose (MC)) 117 % of control. The T/C is, setting by setting: (dose: 50.0 mg/kg/injection, schedule: Q01DX Z (oral), vehicle: carboxymethylcellulose (CMC)) 101 % of control; (dose: 62.5 mg/kg/injection, schedule: Q01DX Z (ip), vehicle: methylcellulose (MC)) 157 % of control; (dose: 100.0 mg/kg/injection, schedule: Q01DX Z (oral), vehicle: carboxymethylcellulose (CMC)) 96 % of control; (dose: 125.0 mg/kg/injection, schedule: Q01DX Z (ip), vehicle: methylcellulose (MC)) 157 % of control; (dose: 200.0 mg/kg/injection, schedule: Q01DX Z (oral), vehicle: carboxymethylcellulose (CMC)) 101 % of control; (dose: 250.0 mg/kg/injection, schedule: Q01DX Z (ip), vehicle: methylcellulose (MC)) 97 % of control.
`COC(=O)c1[nH]nc(-c2ccccc2)c1N`: the T/C was 101 % of control under setting [1]; 93 % of control under setting [2]; 90 % of control (dose: 400.0 mg/kg/injection, schedule: Q04DX003 (ip), vehicle: saline with Tween-80).
As to `O=Cc1cc(=O)[nH]c(S)[n+]1-c1ccccc1`, the T/C was 96 % of control (dose: 50.0 mg/kg/injection, schedule: Q04DX002 (ip), vehicle: Klucel (hydroxypropylcellulose) (HPC)); 96 % of control under setting [3]; 101 % of control under setting [4].
With `CCCCS(=O)(=O)Cc1ccccc1`, the T/C runs as follows: under setting [5], 98 % of control; under setting [3], 100 % of control; under setting [6], 103 % of control; under setting [4], 96 % of control; under setting [7], 98 % of control; (dose: 400.0 mg/kg/injection, schedule: Q04DX002 (ip), vehicle: Klucel (hydroxypropylcellulose) (HPC)) 93 % of control.
Take `COC1OC(CO)C(O)C(NC(=O)N(C)N=O)C1O` (stereo not given): the T/C is, setting by setting: (dose: 12.5 mg/kg/injection, schedule: Q01DX009 (ip), vehicle: saline) 112 % of control; (dose: 25.0 mg/kg/injection, schedule: Q04DX003 (ip), vehicle: saline) 106 % of control; (dose: 44.0 mg/kg/injection, schedule: Q01DX009 (ip), vehicle: saline) 124 % of control; (dose: 50.0 mg/kg/injection, schedule: Q01DX009 (ip), vehicle: saline) 181 % of control; (dose: 50.0 mg/kg/injection, schedule: Q04DX003 (ip), vehicle: saline) 105 % of control; (dose: 66.0 mg/kg/injection, schedule: Q04DX003 (ip), vehicle: saline) 100 % of control. For the same compound, the T/C reads like this: under setting [8], 103 % of control and 218 % of control; under setting [9], 119 % of control; under setting [10], 158 % of control; (dose: 150.0 mg/kg/injection, schedule: Q04DX003 (ip), vehicle: saline) 105 % of control; under setting [11], 166 % of control; under setting [12], 100 % of control. The T/C under setting [13] was 171 % of control; the T/C under setting [14] is 100 % of control and 214 % of control.
As for `Cc1cc(C)c(NS(=O)(=O)c2ccc(Cl)cc2)cc1C`, the T/C is 108 % of control under setting [5], 106 % of control under setting [6] and 100 % of control under setting [7].
For the compound `C/C=C1\CN2CCc3c([nH]c4ccccc34)C2CC1CC(=O)N(C)C` (stereo not given), the T/C runs as follows: under setting [1], 96 % of control; under setting [2], 88 % of control.
Consider `[CH3][Pb]([CH3])([CH3])[I]`, for which the T/C under setting [9] was 103 % of control, the T/C under setting [15] is 98 % of control and the T/C under setting [13] is 94 % of control.
`O=CN/N=C/c1ccc(Cl)c([N+](=O)[O-])c1`: the T/C by setting is: (dose: 75.0 mg/kg/injection, schedule: Q01DX001 (ip), vehicle: acetone) 93 % of control; (dose: 150.0 mg/kg/injection, schedule: Q01DX001 (ip), vehicle: acetone) 92 % of control; (dose: 300.0 mg/kg/injection, schedule: Q01DX001 (ip), vehicle: acetone) 92 % of control.
Regarding `COc1cc(CC2C(O)C3CCN2CC3)cc(OC)c1OC` (stereo not given), the T/C runs as follows: (dose: 25.0 mg/kg/injection, schedule: Q04DX002 (ip), vehicle: saline) 101 % of control; (dose: 50.0 mg/kg/injection, schedule: Q04DX002 (ip), vehicle: saline) 101 % of control; (dose: 100.0 mg/kg/injection, schedule: Q04DX002 (ip), vehicle: saline) 97 % of control and 104 % of control.
`CC(C)(C(=O)O)S(=O)(=O)O`: the T/C is 108 % of control under setting [8], 97 % of control under setting [16] and 103 % of control under setting [12].
Regarding `Nc1nc(-c2cccc([N+](=O)[O-])c2)nc2[nH]ncc12`, the T/C reads like this: (dose: 37.5 mg/kg/injection, schedule: Q01DX001 (ip), vehicle: Klucel (hydroxypropylcellulose) (HPC)) 98 % of control; (dose: 75.0 mg/kg/injection, schedule: Q01DX001 (ip), vehicle: Klucel (hydroxypropylcellulose) (HPC)) 98 % of control; (dose: 150.0 mg/kg/injection, schedule: Q01DX001 (ip), vehicle: Klucel (hydroxypropylcellulose) (HPC)) 96 % of control.
For `CCCCC(=O)c1ccc(C)cc1`, the T/C reads like this: under setting [17], 102 % of control; under setting [18], 98 % of control; (dose: 400.0 mg/kg/injection, schedule: Q01DX001 (ip), vehicle: saline) 96 % of control.
As to `CC(CC(=O)N1CCCCC1)CC(=O)N1CCCCC1`, the T/C under setting [17] was 94 % of control and the T/C under setting [18] was 104 % of control.
Consider `O=NC12CCCCC1C(O)c1cc(Cl)cc(Cl)c1O2` (stereo not given), for which the T/C (dose: 100.0 mg/kg/injection, schedule: Q01DX009 (ip), vehicle: other) is 119 % of control; the T/C under setting [9] was 101 % of control; the T/C (dose: 200.0 mg/kg/injection, schedule: Q01DX009 (ip), vehicle: other) is 95 % of control; the T/C under setting [15] is 95 % of control; the T/C (dose: 400.0 mg/kg/injection, schedule: Q01DX009 (ip), vehicle: other) was 89 % of control; the T/C under setting [13] was 102 % of control.
Regarding `CC12CCC3=C(CCc4cc(O)ccc43)C1CCC2=O` (stereo not given), the T/C reads like this: (dose: 75.0 mg/kg/injection, schedule: Q01DX001 (ip), vehicle: steriod suspending solution) 91 % of control; (dose: 150.0 mg/kg/injection, schedule: Q01DX001 (ip), vehicle: steriod suspending solution) 96 % of control; (dose: 300.0 mg/kg/injection, schedule: Q01DX001 (ip), vehicle: steriod suspending solution) 101 % of control.
For `O=C(Oc1ccc([N+](=O)[O-])cc1)c1ccc(C[P+](c2ccccc2)(c2ccccc2)c2ccccc2)cc1`, the T/C under setting [8] is 98 % of control; the T/C under setting [10] was 93 % of control; the T/C under setting [16] was 98 % of control; the T/C under setting [11] is 90 % of control; the T/C under setting [12] is 96 % of control; the T/C under setting [14] is 93 % of control.
`c1ccc(C([CH2][Hg][CH2]C(c2ccccc2)c2ccccc2)c2ccccc2)cc1`: the T/C by setting is: under setting [8], 101 % of control; under setting [9], 97 % of control; under setting [16], 96 % of control; under setting [15], 93 % of control; under setting [12], 101 % of control; under setting [13], 90 % of control.
`CC1(C)N=C(N)N=C(N)N1c1cccc(OCCCC#N)c1`: the T/C under setting [17] is 101 % of control.
